# “And” between values parts separate entries of the source, which are not always exact repeats. Equal values may be shown once. “Also recorded” adds a separate entry of the source. Read-outs that look alike come from different tables or passages of the source.
# Experiments:
# HBV DNA replication = assay: Effects on HBV DNA replication in 2.2.15 cells in culture (intracellular HBV DNA and HBV virion DNA); format: cell-based, hepatitis B virus; conditions: for Intracellular HBV DNA, Mono. / Intracellular HBV DNA, RI (Replicating Intermediate): 24 hrs following the 9th day of treatment; for HBV Virion DNA, Day 0: Day 0, before first dose
# 2.2.15 cells = assay: Cell toxicity test (neutral red dye uptake); format: cell-based; conditions: plate 23
# Procedure: Toxicity testing was performed in 96-well flat bottomed tissue culture plates. These cells were cultured and treated on same schedule as the test compounds used for antiviral evaluation (example 1). Each group at four concentrations was tested in triplicate cultures. Uptake of neutral red dye was used to determine the relative level of toxicity. The absorbance of internalized dye at 510 nm (A510) was used for the quantitative analysis. Values are presented as a percentage of the average A510 values (mean ± standard deviation) in 9 separate cultures of untreated cells maintained on the same 96-well plate as used for the test compound. The percentage of dye uptake in the 9 controlled cultures on plate 23 was 100±4.
# mice = format: in vivo; conditions: for Alkaline phosphatase / SGOT / Triglyceride: serum at 24 hours; for Fatalities: 24 hours, ten mice
# gram positive bacteria = conditions: cited from earlier work
# [1] = test system: hepatic damage induced by carbon tetrachloride; conditions: laboratory animals; cited from earlier work
# [2] = test system: liver damage caused by α-amantin intoxication; conditions: mice; cited from earlier work
# Sarcoma 180 cells = conditions: cited from earlier work
# [3] = 30 μM + 30'Gly. (incubated 30 min with glycosidase)
# [4] = 30 μM + Gly. (first group, 123AE/AF/BE/BF)
# [5] = 30 μM + Gly. (second group, 123AG/AH/BG/BH)
# [6] = 100 μM + 30'Gly. (incubated 30 min with glycosidase)
# [7] = 300 μM + 30'Gly. (incubated 30 min with glycosidase)
# [8] = 300 μM + Gly. (glucosidase, no incubation)
# [9] = 1000 μM + 30'Gly. (incubated 30 min with glycosidase)
# [10] = 1000 μM + Gly. (glucosidase, no incubation)
smiles,measurement,setting,value
"OCC1=CC(O)C2C=COC(O[C@@H]3O[C@H](CO)[C@@H](O)[C@H](O)[C@H]3O)C12 (stereo partly drawn) [Aucubin, 1,4,5, 7α-tetrahydro-5-hydroxy-17-(hydroxymethyl)cyclopenta[c]pyran-1-yl-β-D-glucopyranose]",inhibition of HBV DNA biosynthesis / antiviral activity (in words),HBV DNA replication,exerts an antiviral activity aganist HBV infection; also recorded: marked inhibition of HBV DNA biosynthesis
same,"Intracellular HBV DNA, Mono.",HBV DNA replication; [3],2.5 pg/μg cell DNA and 2.4 pg/μg cell DNA and 2.3 pg/μg cell DNA and 2.7 pg/μg cell DNA
same,"Intracellular HBV DNA, RI (Replicating Intermediate)",HBV DNA replication; [3],92 pg/μg cell DNA and 68 pg/μg cell DNA and 59 pg/μg cell DNA
same,"HBV Virion DNA, Day 0",HBV DNA replication; 30 μM + 30'Gly.,61 pg/ml culture medium and 79 pg/ml culture medium and 68 pg/ml culture medium
same,"HBV Virion DNA, Day 3",HBV DNA replication; 30 μM + 30'Gly.,85 pg/ml culture medium and 94 pg/ml culture medium and 51 pg/ml culture medium and 75 pg/ml culture medium
same,"HBV Virion DNA, Day 6",HBV DNA replication; 30 μM + 30'Gly.,70 pg/ml culture medium and 62 pg/ml culture medium and 55 pg/ml culture medium and 75 pg/ml culture medium
same,"HBV Virion DNA, Day 9",HBV DNA replication; 30 μM + 30'Gly.,80 pg/ml culture medium and 48 pg/ml culture medium and 87 pg/ml culture medium and 91 pg/ml culture medium
same,"Intracellular HBV DNA, Mono.",HBV DNA replication; [4],2.6 pg/μg cell DNA and 2.8 pg/μg cell DNA and 2.4 pg/μg cell DNA and 2.1 pg/μg cell DNA
same,"Intracellular HBV DNA, RI (Replicating Intermediate)",HBV DNA replication; [4],21 pg/μg cell DNA and 27 pg/μg cell DNA and 22 pg/μg cell DNA and 26 pg/μg cell DNA
same,"HBV Virion DNA, Day 0",HBV DNA replication; [4],52 pg/ml culture medium and 76 pg/ml culture medium and 55 pg/ml culture medium
same,"HBV Virion DNA, Day 3",HBV DNA replication; [4],59 pg/ml culture medium and 77 pg/ml culture medium and 51 pg/ml culture medium
same,"HBV Virion DNA, Day 6",HBV DNA replication; [4],40 pg/ml culture medium and 48 pg/ml culture medium and 66 pg/ml culture medium and 59 pg/ml culture medium
same,"HBV Virion DNA, Day 9",HBV DNA replication; [4],15 pg/ml culture medium and 22 pg/ml culture medium
same,"Intracellular HBV DNA, Mono.",HBV DNA replication; [5],2.6 pg/μg cell DNA and 2.8 pg/μg cell DNA and 2.4 pg/μg cell DNA and 2.1 pg/μg cell DNA
same,"Intracellular HBV DNA, RI (Replicating Intermediate)",HBV DNA replication; [5],70 pg/μg cell DNA and 75 pg/μg cell DNA and 63 pg/μg cell DNA and 68 pg/μg cell DNA
same,"HBV Virion DNA, Day 0",HBV DNA replication; [5],67 pg/ml culture medium
same,"HBV Virion DNA, Day 3",HBV DNA replication; [5],94 pg/ml culture medium and 82 pg/ml culture medium and 97 pg/ml culture medium and 62 pg/ml culture medium
same,"HBV Virion DNA, Day 6",HBV DNA replication; [5],58 pg/ml culture medium and 61 pg/ml culture medium and 69 pg/ml culture medium
same,"HBV Virion DNA, Day 9",HBV DNA replication; [5],55 pg/ml culture medium and 72 pg/ml culture medium and 70 pg/ml culture medium and 67 pg/ml culture medium
same,"Intracellular HBV DNA, Mono.",HBV DNA replication; [6],2.5 pg/μg cell DNA and 2.4 pg/μg cell DNA and 2.3 pg/μg cell DNA and 2.7 pg/μg cell DNA
same,"Intracellular HBV DNA, RI (Replicating Intermediate)",HBV DNA replication; [6],33 pg/μg cell DNA and 32 pg/μg cell DNA and 27 pg/μg cell DNA and 26 pg/μg cell DNA
same,"HBV Virion DNA, Day 0",HBV DNA replication; 100 μM + 30'Gly.,55 pg/ml culture medium and 51 pg/ml culture medium and 86 pg/ml culture medium
same,"HBV Virion DNA, Day 3",HBV DNA replication; 100 μM + 30'Gly.,80 pg/ml culture medium and 49 pg/ml culture medium and 50 pg/ml culture medium and 57 pg/ml culture medium
same,"HBV Virion DNA, Day 6",HBV DNA replication; 100 μM + 30'Gly.,50 pg/ml culture medium and 66 pg/ml culture medium and 41 pg/ml culture medium and 45 pg/ml culture medium
same,"HBV Virion DNA, Day 9",HBV DNA replication; 100 μM + 30'Gly.,16 pg/ml culture medium
same,"Intracellular HBV DNA, Mono.",HBV DNA replication; [7],2.4 pg/μg cell DNA and 2.6 pg/μg cell DNA and 1.9 pg/μg cell DNA and 2.0 pg/μg cell DNA
same,"Intracellular HBV DNA, RI (Replicating Intermediate)",HBV DNA replication; [7],11 pg/μg cell DNA and 10 pg/μg cell DNA and 7 pg/μg cell DNA and 9 pg/μg cell DNA
same,"HBV Virion DNA, Day 0",HBV DNA replication; 300 μM + 30'Gly.,88 pg/ml culture medium and 51 pg/ml culture medium and 50 pg/ml culture medium and 59 pg/ml culture medium
same,"HBV Virion DNA, Day 3",HBV DNA replication; 300 μM + 30'Gly.,80 pg/ml culture medium and 55 pg/ml culture medium and 61 pg/ml culture medium
same,"HBV Virion DNA, Day 6",HBV DNA replication; 300 μM + 30'Gly.,54 pg/ml culture medium and 39 pg/ml culture medium and 44 pg/ml culture medium
same,"HBV Virion DNA, Day 9",HBV DNA replication; 300 μM + 30'Gly.,9 pg/ml culture medium and 7 pg/ml culture medium and 6 pg/ml culture medium and 8 pg/ml culture medium
same,"Intracellular HBV DNA, Mono.",HBV DNA replication; [8],2.0 pg/μg cell DNA and 2.4 pg/μg cell DNA and 2.5 pg/μg cell DNA
same,"Intracellular HBV DNA, RI (Replicating Intermediate)",HBV DNA replication; [8],7 pg/μg cell DNA and 6 pg/μg cell DNA and 5 pg/μg cell DNA and 9 pg/μg cell DNA
same,"HBV Virion DNA, Day 0",HBV DNA replication; 300 μM + Gly.,54 pg/ml culture medium and 59 pg/ml culture medium and 77 pg/ml culture medium and 66 pg/ml culture medium
same,"HBV Virion DNA, Day 3",HBV DNA replication; 300 μM + Gly.,66 pg/ml culture medium and 89 pg/ml culture medium and 98 pg/ml culture medium
same,"HBV Virion DNA, Day 6",HBV DNA replication; 300 μM + Gly.,54 pg/ml culture medium and 48 pg/ml culture medium and 44 pg/ml culture medium and 51 pg/ml culture medium
same,"HBV Virion DNA, Day 9",HBV DNA replication; 300 μM + Gly.,9 pg/ml culture medium and 7 pg/ml culture medium and 5 pg/ml culture medium and 6 pg/ml culture medium
same,"Intracellular HBV DNA, Mono.",HBV DNA replication; [9],2.3 pg/μg cell DNA and 2.0 pg/μg cell DNA and 2.1 pg/μg cell DNA
same,"Intracellular HBV DNA, RI (Replicating Intermediate)",HBV DNA replication; [9],3 pg/μg cell DNA and 2 pg/μg cell DNA and 4 pg/μg cell DNA
same,"HBV Virion DNA, Day 0",HBV DNA replication; 1000 μM + 30'Gly.,84 pg/ml culture medium and 70 pg/ml culture medium and 79 pg/ml culture medium and 59 pg/ml culture medium
same,"HBV Virion DNA, Day 3",HBV DNA replication; 1000 μM + 30'Gly.,67 pg/ml culture medium and 66 pg/ml culture medium and 78 pg/ml culture medium
same,"HBV Virion DNA, Day 6",HBV DNA replication; 1000 μM + 30'Gly.,20 pg/ml culture medium and 17 pg/ml culture medium and 24 pg/ml culture medium
same,"HBV Virion DNA, Day 9",HBV DNA replication; 1000 μM + 30'Gly.,2 pg/ml culture medium and 3 pg/ml culture medium
same,"Intracellular HBV DNA, Mono.",HBV DNA replication; [10],2.2 pg/μg cell DNA and 2.1 pg/μg cell DNA and 2.3 pg/μg cell DNA and 2.6 pg/μg cell DNA
same,"Intracellular HBV DNA, RI (Replicating Intermediate)",HBV DNA replication; [10],3 pg/μg cell DNA and 2 pg/μg cell DNA
same,"HBV Virion DNA, Day 0",HBV DNA replication; 1000 μM + Gly.,64 pg/ml culture medium and 81 pg/ml culture medium and 80 pg/ml culture medium
same,"HBV Virion DNA, Day 3",HBV DNA replication; 1000 μM + Gly.,70 pg/ml culture medium and 67 pg/ml culture medium
same,"HBV Virion DNA, Day 6",HBV DNA replication; 1000 μM + Gly.,25 pg/ml culture medium and 18 pg/ml culture medium and 22 pg/ml culture medium and 20 pg/ml culture medium
same,"HBV Virion DNA, Day 9",HBV DNA replication; 1000 μM + Gly.,1 pg/ml culture medium
same,Amount of dye uptake,"2.2.15 cells; Aucubin + 30'GLY. (preincubated 30 min with glucosidase), 300 μM",99 ± 2 % of control
same,Amount of dye uptake,"2.2.15 cells; Aucubin + 30'GLY. (preincubated 30 min with glucosidase), 1000 μM",99 ± 2 % of control
same,Amount of dye uptake,"2.2.15 cells; Aucubin + 30'GLY. (preincubated 30 min with glucosidase), 3000 μM",82 ± 2 % of control
same,Amount of dye uptake,"2.2.15 cells; Aucubin + 30'GLY. (preincubated 30 min with glucosidase), 10,000 μM",67 ± 3 % of control
same,Amount of dye uptake,"2.2.15 cells; Aucubin + GLY. (glucosidase without preincubation), 300 μM",99 ± 2 % of control
same,Amount of dye uptake,"2.2.15 cells; Aucubin + GLY. (glucosidase without preincubation), 1000 μM",99 ± 1 % of control
same,Amount of dye uptake,"2.2.15 cells; Aucubin + GLY. (glucosidase without preincubation), 3000 μM",93 ± 5 % of control
same,Amount of dye uptake,"2.2.15 cells; Aucubin + GLY. (glucosidase without preincubation), 10,000 μM",63 ± 6 % of control
same,Amount of dye uptake,"2.2.15 cells; Aucubin alone, 300 μM",99 ± 1 % of control
same,Amount of dye uptake,"2.2.15 cells; Aucubin alone, 1000 μM",100 ± 1 % of control
same,Amount of dye uptake,"2.2.15 cells; Aucubin alone, 3000 μM",85 ± 3 % of control
same,Amount of dye uptake,"2.2.15 cells; Aucubin alone, 10,000 μM",45 ± 3 % of control
same,Alkaline phosphatase,mice; 100 mg/kg i.p.,236 IU/L
same,SGOT,mice; 100 mg/kg i.p.,261 IU/L
same,Fatalities,mice; 100 mg/kg intraperitoneal single dose,0 No.
same,Alkaline phosphatase,mice; 300 mg/kg i.p.,157 IU/L
same,SGOT,mice; 300 mg/kg i.p.,194 IU/L
same,Triglyceride,mice; 300 mg/kg i.p.,35 mg/dL
same,Fatalities,mice; 300 mg/kg intraperitoneal single dose,0 No.
same,Alkaline phosphatase,mice; 600 mg/kg i.p.,135 IU/L
same,SGOT,mice; 600 mg/kg i.p.,179 IU/L
same,Triglyceride,mice; 600 mg/kg i.p.,39 mg/dL
same,Fatalities,mice; 600 mg/kg intraperitoneal single dose,0 No.
same,SGOT,mice; 900 mg/kg i.p.,162 IU/L
same,Triglyceride,mice; 900 mg/kg i.p.,51 mg/dL
same,Fatalities,mice; 900 mg/kg intraperitoneal single dose,0 No.
same,fatality (in words),mice; 100-900 mg/kg i.p.,no fatality
same,activities of SGOT and alkaline phosphatase,mice; high dose,slight decline
same,serious toxic effect (in words),mice; high dose,no serious toxic effect occurred
same,triglyceride contents,mice; high dose,elevated slightly
same,minimum fatal dose,"mice; mouse, in vivo, ip",more than 900 mg/kg
same,Antibacterial activity,gram positive bacteria,Antibacterial activity was noted mainly on gram positive bacteria
same,Liver-protective activity against carbon tetrachloride,[1],protect the liver from hepatic damage induced by carbon tetrachloride intoxication
same,Liver-protective activity against α-amantin,[2],protects the liver from damages caused by α-amantin intoxication in mice
same,Inhibitory effects on RNA and protein biosynthesis,Sarcoma 180 cells,can exert inhibitory effects on RNA and protein biosynthesis in Sarcoma 180 cells
